Patent publication US5714467A, “Antibacterial and antimalarial hybrid peptides” (The Rockefeller University, priority 1993, dated 1998)
Where no end group is shown, it is not given here.

Assays:
[1] = system: Plasmodium falciparium strain F32 (Tanzania), blood stream forms; assay: inhibition of reinvasion of human red cells by malaria parasite; type: cell-based, Plasmodium falciparum; settings: for IC50: Table 4, P. falciparum, read-out: 50% Reinvasion Inhibition; for antimalarial potency in words: FIG. 1, blood stream form of Plasmodium falciparium
Procedure: Hybrid peptides CA(1-13)M(1-13) and CA(1-8)M(1-18) were prepared as described above (see Examples 1-6) and were assayed for activity against the blood stream form of Plasmodium falciparium. For comparison the test included cecropins A and B and the frog skin peptides magainin 2 and PGLa.
The blood stream forms of the malaria parasite Plasmodium falciparium, primarily late trophozoites and early schizonts, were assayed by recording the inhibition of the reinvasion of human red cells by the method of Wahlin, B., et al, (1984) Proc. Nat'l Acad. Sci. USA 81, 7912-16, incorporated herein by reference. Quadruplicate microcultures of strain F32 (Tanzania) were incubated for 20 hrs at 37° C. in a complete tissue culture medium, with or without different concentrations of the peptides to be assayed. After acridine orange staining, the percentage of newly infected red cells was scored in a fluorescence microscope. For each culture 40,000 red cells were analysed for parasitic infection. Duplicate assays were run for CA(1-13)M(1-13).

Streptococcus pyogenes = assay: inhibition zone assay, lethal concentration; type: cell-based; settings: for Lethal concentration, Strep = S. pyogenes: Table 3, agarose plates, overnight incubation at 30° C.
Procedure: (§1) The products of the invention were tested for activity against a variety of test organisms selected to represent a number of different types of pathogens some of them known to be particularly virulent by the inhibition zone assay of Hoffmann et al (1981) Insect Biochem. 11 537-548 which is incorporated herein by reference. Thin agar or agarose plates (8.5 cm diameter) were prepared with 6 ml of rich medium containing 100 ug/ml of streptomycin and 2×10^5 viable cells of a test organism resistant to streptomycin. Wells of […] diameter were punched in the plates and 3 ul of serially diluted samples were placed in the wells. The diameters of the zones of inhibition around the wells were measured after overnight incubation at 30° or 37° C. For each peptide the squares of the zone diameters were plotted against the logarithm of the concentration, and from the slopes and intercepts the lethal concentrations were calculated as described by Hultmark (1983) EMBO J. 2, 571-76 or Hultmark et al (1982) Eur. J. Biochem. 127 207-217 each of which being incorporated herein by reference.
(§2) It was observed during testing that basic peptides often bind to agar plates, but not so much to agarose. Therefore those lethal concentrations determined on agar may, in fact, be substantially higher than the actual lethal concentrations.
(§3) Novel peptides CA(1-8)M(1-18), CA(1-9)M(1-17), CB(1-13)M(1-13), CA(1-17)M(1-9), CA(1-18)M(1-8), M(1-13)CA(1-22) and M(1-13)CA(1-13) were prepared as described above (see Examples 1-6). These novel peptides and CA, CB, and M were tested for activity against a variety of organisms selected to represent a number of different types of pathogens, some of them known to be particularly virulent by the inhibition zone assay of Hoffmann et al (1981), Insect Biochem. 11 537-48. As in Examples 1-6, thin agarose plates were prepared with the respective organisms. The diameters of the zones of inhibition were measured after overnight incubation at 30° C. The lethal concentrations were determined as described above (see Examples 1-6; Hultmark et al articles cited thereat).

[2] = system: Staphylococcus aureus Cowan I; assay: inhibition zone assay, lethal concentration; type: cell-based; settings: for Lethal concentration, Staph = S. aureus Cowan I: Table 3, agarose plates, overnight incubation at 30° C.; for Lethal concentration, Staphylococcus aureus Cowan I: Table 2, footnote a: incubation overnight at 30° C. as well as at 37° C.
Procedure: as §1, §2, §3

Escherichia coli D21 = assay: inhibition zone assay, lethal concentration; type: cell-based; settings: for Lethal concentration, D21 = E. coli: Table 3, agarose plates, overnight incubation at 30° C.
Procedure: as §1, §2, §3

[3] = system: Pseudomonas aeruginosa OT97; assay: inhibition zone assay, lethal concentration; type: cell-based; settings: for Lethal concentration, OT97 = P. aeruginosa: Table 3, agarose plates, overnight incubation at 30° C.
Procedure: as §1, §2, §3

Bacillus megaterium BM11 = assay: inhibition zone assay, lethal concentration; type: cell-based; settings: Table 2, footnote c: incubation overnight at 37° C.
Procedure: as §1, §2

Escherichia coli D22 = assay: inhibition zone assay, lethal concentration; type: cell-based; settings: Table 2, footnote c: incubation overnight at 37° C.
Procedure: as §1, §2

Micrococcus luteus Ml11 = assay: inhibition zone assay, lethal concentration; type: cell-based; settings: Table 2, footnote c: incubation overnight at 37° C.
Procedure: as §1, §2

Bacillus subtilis Bs11 = assay: inhibition zone assay, lethal concentration; type: cell-based; settings: for Lethal concentration, Bacillus subtilis Bs11 (Medium E): Table 2, Medium E; for Lethal concentration, Bs11 = B. subtilis: Table 3, agarose plates; for Lethal concentration, Bs11 = B. subtilis / Lethal concentration, Bs11 + ME = B. subtilis, plates prepared with medium E: overnight incubation at 30° C.; for Lethal concentration, Bs11 + ME = B. subtilis, plates prepared with medium E: Table 3, medium E, agarose plates
Procedure: as §1, §2, §3

Sheep Red Cells = assay: lysis of sheep red blood cells (lysis assay or SRC plate assay); type: cell-based; settings: for Lethal concentration, SRC = Sheep Red Cells: Table 3
Procedure: These values were obtained by either the lysis assay normally used for melittin or by an adaptation of the antibacterial inhibition zone assay of the above-cited Hultmark et al articles to plates with sheep red cells (SRC). With respect to the latter, sterile agarose plates contained 6 ml of medium With 1% agarose, 0.9% NaCl and 10% SRC suspended in Alsevers solution. A dilution series of peptide was applied in 3 mm wells each loaded with 3 μl of the respective samples. The plates were incubated at 30° C. for 24 h, the zones were recorded and LC values calculated as described in the Hultmark et al articles. Clear zones were recorded after a few hours of incubation and the use of such data gave an LC value of the same order as readings after 24 h. This plate assay is faster and more convenient than the lysis assay normally used for melittin.

[4] = system: Xenorhabdus nematophilis Xn21; assay: inhibition zone assay, lethal concentration; type: cell-based; settings: Table 2, footnote c: incubation overnight at 37° C.
Procedure: as §1, §2

Saccharomyces cerevisiae = assay: inhibition zone assay, lethal concentration; type: cell-based; settings: Table 2, footnote c: incubation overnight at 37° C.
Procedure: as §1, §2

Candida albicans = assay: inhibition zone assay, lethal concentration; type: cell-based; settings: Table 2, footnote c: incubation overnight at 37° C.
Procedure: as §1, §2

[5] = system: Staphylococcus haemolyticus; assay: inhibition zone assay, lethal concentration; type: cell-based; settings: Table 2, footnote c: incubation overnight at 37° C.
Procedure: as §1, §2

[6] = Table 2, footnote c: incubation overnight at 37° C.
[7] = Table 2, footnote b: incubation overnight at 30° C.
[8] = Table 2, footnote a: incubation overnight at 30° C. as well as at 37° C.

Molecule: magainin 2
- IC50 [1]: 80 µM

Molecule: KWKVFKKIEKMGRNIRNGIVKAGPAIAVLGEAKAL-NH2 [CB(1-35), Cecropin B]
- antimalarial potency in words [1]: about as potent as Mag
- IC50 [1]: 110 µM
- Lethal concentration, Strep = S. pyogenes (Streptococcus pyogenes): 12 µM
- Lethal concentration, Staph = S. aureus Cowan I [2]: 200 µM
- Lethal concentration, D21 = E. coli (Escherichia coli D21): 0.3 µM
- Lethal concentration, OT97 = P. aeruginosa [3]: 1 µM

Molecule: WNPFKELEKVGQRVRDAVISAGPAVATVAQATALAK-NH2 [CD(2-37), Cecropin D]
- Lethal concentration, Bacillus megaterium BM11 (Bacillus megaterium BM11): 30 µM
- Lethal concentration, Escherichia coli D22 (Escherichia coli D22): 0.6 µM
- Lethal concentration, Micrococcus luteus Ml11 (Micrococcus luteus Ml11): 12 µM
- Lethal concentration, Escherichia coli D21 (Escherichia coli D21; [6]): 3.6 µM
- Lethal concentration, Bacillus subtilis Bs11 (Bacillus subtilis Bs11; [6]): 100 µM
- Lethal concentration, Pseudomonas aeruginosa OT97 [3, 6]: 90 µM

Molecule: CC[C@H](C)[C@H](NC(=O)CN)C(=O)NCC(=O)N[C@@H](C)C(=O)N[C@H](C(=O)N[C@@H](CC(C)C)C(=O)N[C@@H](CCCCN)C(=O)N[C@H](C(=O)N[C@@H](CC(C)C)C(=O)N[C@H](C(=O)N[C@H](C(=O)NCC(=O)N[C@@H](CC(C)C)C(=O)N1CCC[C@H]1C(=O)N[C@@H](C)C(=O)N[C@@H](CC(C)C)C(=O)N[C@H](C(=O)N[C@@H](CO)C(=O)N[C@@H](Cc1c[nH]c2ccccc12)C(=O)N[C@H](C(=O)N[C@@H](CCCCN)C(=O)N[C@@H](CCCNC(=N)N)C(=O)N[C@@H](CCCCN)C(=O)N[C@@H](CCCNC(=N)N)C(=O)N[C@@H](CCC(N)=O)C(=O)N[C@@H](CCC(N)=O)C(N)=O)[C@@H](C)CC)[C@@H](C)CC)[C@@H](C)O)[C@@H](C)O)C(C)C)C(C)C [M(1-26), Melittin]
- Lethal concentration, Sheep Red Cells (Sheep Red Cells; [7]): 4 to 8 µM
- Lethal concentration, Sheep Red Cells (Sheep Red Cells; [6]): 4 to 6 µM
- Lethal concentration, SRC = Sheep Red Cells (Sheep Red Cells): 4 to 8 µM
- Lethal concentration, Xenorhabdus nematophilis Xn21 [4]: 9 to 50 µM
- Lethal concentration, Saccharomyces cerevisiae (Saccharomyces cerevisiae): 10 µM
- Lethal concentration, Candida albicans (Candida albicans): 150 µM
- Lethal concentration, Staphylococcus haemolyticus [5]: 0.3 µM
- Lethal concentration, Streptococcus pyogenes (Streptococcus pyogenes; [8]): 0.5 µM
- Lethal concentration, Strep = S. pyogenes (Streptococcus pyogenes): 0.5 µM
- Lethal concentration, Staphylococcus aureus Cowan I [2]: 0.2 µM
- Lethal concentration, Staph = S. aureus Cowan I [2]: 0.2 µM
- Lethal concentration, Escherichia coli D21 (Escherichia coli D21; [8]): 0.8 µM
- Lethal concentration, D21 = E. coli (Escherichia coli D21): 0.8 µM
- Lethal concentration, Bacillus subtilis Bs11 (Medium E) (Bacillus subtilis Bs11; no incubation footnote): 0.3 µM
- Lethal concentration, Bacillus subtilis Bs11 (Bacillus subtilis Bs11; [8]): 0.2 µM
- Lethal concentration, Bs11 = B. subtilis (Bacillus subtilis Bs11): 0.2 µM
- Lethal concentration, Bs11 + ME = B. subtilis, plates prepared with medium E (Bacillus subtilis Bs11): 0.3 µM
- Lethal concentration, Pseudomonas aeruginosa OT97 [3, 8]: 3 µM
- Lethal concentration, OT97 = P. aeruginosa [3]: 3 µM

Molecule: KWKLFKKIEKVGQNIRDGIIKAGPAVAVVGQATQIAK-NH2 [CA(1-37), Cecropin A]
- Lethal concentration, Sheep Red Cells (Sheep Red Cells; [8]): > 200 µM
- Lethal concentration, SRC = Sheep Red Cells (Sheep Red Cells): 200 µM
- Lethal concentration, Xenorhabdus nematophilis Xn21 [4]: 2 µM
- Lethal concentration, Bacillus megaterium BM11 (Bacillus megaterium BM11): 1 µM
- Lethal concentration, Saccharomyces cerevisiae (Saccharomyces cerevisiae): 60 µM
- Lethal concentration, Candida albicans (Candida albicans): > 200 µM
- Lethal concentration, Escherichia coli D22 (Escherichia coli D22): 0.5 µM
- Lethal concentration, Staphylococcus haemolyticus [5]: 3 µM
- Lethal concentration, Micrococcus luteus Ml11 (Micrococcus luteus Ml11): 1 µM
- antimalarial potency in words [1]: negligible activity
- Lethal concentration, Streptococcus pyogenes (Streptococcus pyogenes; [7]): 4 µM
- Lethal concentration, Streptococcus pyogenes (Streptococcus pyogenes; [6]): 6 µM
- Lethal concentration, Strep = S. pyogenes (Streptococcus pyogenes): 4 µM
- Lethal concentration, Staphylococcus aureus Cowan I [2]: > 200 µM
- Lethal concentration, Staph = S. aureus Cowan I [2]: 200 µM
- Lethal concentration, Escherichia coli D21 (Escherichia coli D21; [8]): 0.2 µM
- Lethal concentration, D21 = E. coli (Escherichia coli D21): 0.2 µM
- Lethal concentration, Bacillus subtilis Bs11 (Medium E) (Bacillus subtilis Bs11; footnote c: incubation overnight at 37° C.): 200 µM
- Lethal concentration, Bacillus subtilis Bs11 (Bacillus subtilis Bs11; [8]): 4 µM
- Lethal concentration, Bs11 = B. subtilis (Bacillus subtilis Bs11): 4 µM
- Lethal concentration, Bs11 + ME = B. subtilis, plates prepared with medium E (Bacillus subtilis Bs11): 200 µM
- Lethal concentration, Pseudomonas aeruginosa OT97 [3, 7]: 2 µM
- Lethal concentration, Pseudomonas aeruginosa OT97 [3, 6]: 1.6 µM
- Lethal concentration, OT97 = P. aeruginosa [3]: 2 µM

Molecule: PGLa [PGL^a]
- antimalarial potency in words [1]: intermediate activity
- IC50 [1]: 40 µM

Molecule: Cecropin P-1
- IC50 [1]: 90 µM
